The values that follow are results of earlier work, collected in patent US9562052B2, “Bicyclicpyridine derivatives” (Hoffmann-La Roche Inc., priority 2012, dated 2017).

SMILES strings stand for the structures.

Turning to `CCc1c(-c2ccccc2)c(-c2ccccc2)nn1-c1ccccc1-c1cccc(OCC(=O)O)c1` [BMS309403], the atherosclerotic plaques formation result in the data set on ApoE KO mice was “decrease”. Moreover, in the data set with ob/ob mice, the “body weight and energy consumption” value is “no change”; the hepatic steatosis entry was “reduction”. In the data set with ob/ob mice (clamp study), the “glucose uptake in muscle and adipose” value was “increased”; the hepatic glucose production result is “reduction”.
